These results are taken from patent US20050171139A1, “Treating psychotic symptoms” (priority 2003, published 2005).

This experiment in a line: PPI after repeated low-dose ropinirole. The experiment is classed as in vivo. To be noted: same low doses as quinpirole.

As to `CCCN(CCC)CCc1cccc2c1CC(=O)N2` [ropinirole], the “effect on PPI over time” value was “acts like quinpirole to attenuate PPI symptoms over time”.
